# “Also recorded” adds a separate entry of the source.
# What was measured:
# [1] = test system: Kupffer cells; test: Gadolinium chloride treatment after partial hepatectomy (PHx) in Casp8F/-:Alb-Cre mice; assay type: in vivo; details: 1/3 PHx, 10 mg/kg i.p. on days 10 and 12 after PHx
# Protocol: (iii) Partial Hepatectomy and Gadolinium Chloride Administration. Age-matched Casp8^F/−: Alb-Cre mice and Casp8^F/+: Alb-Cre mice were lightly anesthetized with intraperitoneally (i.p.) administered xylazine […] (Chanelle Pharmaceuticals Manufacturing, Loughrea, Galway, Ireland) and ketamine […] (Fort Dodge Animal Health, Fort Dodge, Iowa). It was performed ‘one-third’ (30%) PHx by excising the median lobe of the liver, and ‘two-thirds’ (70%) PHx by excising the median, left, and right upper lobes as described (Higgins et al., 1931 and Greene et al., 2003). Mice were imaged before PHx and afterwards on days 0-56 (every other day during the first week and weekly from then on). On days 10 and 12 after PHx the mice were injected i.p. with gadolinium chloride (Sigma-Aldrich, St. Louis, Mo.) in saline at a dosage of 10 mg/kg.
# (iv) MRI Analysis Technique. Magnetic resonance imaging (MRI) experiments were performed using a horizontal 4.7 T Biospec spectrometer (Bruker Medical, Ettlingen, Germany) with a 4.2-cm birdcage coil. Mice were anesthetized (with pentobarbital 30 mg/kg, i.p.) and placed supine with the liver located at the center of the coil. Liver volume was determined from multi-slice coronal and axial T1-weighted spin echo images (repetition time=400 ms; echo time=18 ms; slice thickness=1 mm). In brief, the liver boundary visualized in each slice was outlined using image-processing software (NIH Image). […] The total liver volume was calculated as the summed area of all slices, multiplied by the slice thickness. For each mouse the liver volume was expressed as a percentage of the preoperative liver volume. […]
# Cells expressing F4/80 were detected similarly, using rat anti-mouse F4/80 antibody (Serotec Oxford, UK), except that for antigen retrieval the paraffin sections were treated for 3 minutes at room temperature with a solution containing 20 mM Tris (pH 7.5), 0.1% trypsin, and 0.1% calcium chloride. The macrophage content of the livers was determined by quantifying the F4/80 positive areas in the slides using the ImageJ 1.37r software.
# [2] = test system: Kupffer cells; details: stated as a known fact, no experiment of the patent described; cited from earlier work
smiles,measurement,setting,value
[Cl][Gd]([Cl])[Cl] [gadolinium chloride],"late (delayed) hepatocyte proliferation, anti-Ki67 stained nuclei in 10 high-power fields","[1]; 14th day after PHx, 10 mg/kg",practically wiped out the increase in hepatocyte proliferation; also recorded: arrest of the delayed hepatocyte proliferation
same,"liver volume / excessive increase in liver size (hepatomegaly), MRI scans","[1]; 14th day after PHx, 10 mg/kg",curtailed; also recorded: prevention of hepatomegaly
same,"inflammatory cells (macrophages, anti-F4/80 staining) accumulated in the liver",[1]; liver examined 14 days after PHx,substantially decreasing the inflammatory cells that had accumulated
same,hepatocyte proliferation facilitated early after PHx,[2],"does not decrease, but rather is enhanced"

# Source: patent US8304384B2, “Caspase-8 and inflammation, infection and wound healing” (Yeda Research and Development Co., Ltd, priority 2006, dated 2012)
